According to the CheMixHub viscosity set:

Test: xn = mol fraction of the nth substance listed

CC(=O)O.NCCO + CS(C)=O
298.15 K, 101.3 kPa
Details | viscosity [mPa·s]
x2 = 0.069 | 1634
x2 = 0.143 | 1064
x2 = 0.223 | 420
x2 = 0.311 | 375.1
x2 = 0.404 | 139.5
x2 = 0.502 | 66.42
x2 = 0.612 | 29.5
x2 = 0.732 | 12.73
x2 = 0.852 | 6.71

CCN(CC)S(C)(=O)=O + CO
303.15 K, 101.33 kPa
Details | viscosity [mPa·s]
x1 = 0.065 | 60400
x1 = 0.1394 | 73000
x1 = 0.2155 | 88400
x1 = 0.2885 | 103400
x1 = 0.3717 | 123400
x1 = 0.4509 | 145100
x1 = 0.5148 | 164500
x1 = 0.5856 | 187800
x1 = 0.6922 | 228900
x1 = 0.7686 | 263600
x1 = 0.8304 | 295600
x1 = 0.9084 | 341400

CCCCC + CCCCO
298.15 K, 101 kPa
Details | viscosity [mPa·s]
x2 = 0.1233 | 0.258
x2 = 0.2435 | 0.319
x2 = 0.4175 | 0.481
x2 = 0.4935 | 0.609
x2 = 0.5883 | 0.809
x2 = 0.6892 | 1.042
x2 = 0.7941 | 1.44
x2 = 0.869 | 1.832

OC1CCCCC1 + COCCO
303.15 K, 101.3 kPa
Details | viscosity [mPa·s]
x2 = 0.135 | 31.36
x2 = 0.232 | 23.64
x2 = 0.3144 | 17.36
x2 = 0.4389 | 9.281
x2 = 0.4908 | 6.609
x2 = 0.5515 | 4.075
x2 = 0.9188 | 0.811

CC(C)CC(C)O (stereo unspecified) + CCO
298.15 K, 101.33 kPa
Details | viscosity [mPa·s]
x2 = 0.1103 | 3.682
x2 = 0.2012 | 3.495
x2 = 0.3207 | 3.131
x2 = 0.4152 | 2.817
x2 = 0.5152 | 2.487
x2 = 0.6098 | 2.16
x2 = 0.7078 | 1.883
x2 = 0.8008 | 1.6
x2 = 0.8981 | 1.342

CS(C)=O + CO
Details | viscosity [mPa·s]
298.15 K, 101 kPa, x1 = 0.2 | 0.705
298.15 K, 101 kPa, x1 = 0.4 | 0.942
298.15 K, 101 kPa, x1 = 0.6 | 1.212
298.15 K, 101 kPa, x1 = 0.8 | 1.581
298.15 K, 101.3 kPa, x1 = 0.0439 | 0.583
298.15 K, 101.3 kPa, x1 = 0.093 | 0.616
298.15 K, 101.3 kPa, x1 = 0.1279 | 0.642
298.15 K, 101.3 kPa, x1 = 0.2139 | 0.708
298.15 K, 101.3 kPa, x1 = 0.2908 | 0.792
298.15 K, 101.3 kPa, x1 = 0.3809 | 0.884
298.15 K, 101.3 kPa, x1 = 0.4902 | 1.03
298.15 K, 101.3 kPa, x1 = 0.6224 | 1.259
298.15 K, 101.3 kPa, x1 = 0.7858 | 1.564
298.15 K, 101.3 kPa, x1 = 0.8923 | 1.768
298.15 K, 101.3 kPa, x1 = 0.9667 | 1.923
298.15 K, 101.31 kPa, x1 = 0.1531 | 0.66
298.15 K, 101.31 kPa, x1 = 0.1961 | 0.695
298.15 K, 101.31 kPa, x1 = 0.2939 | 0.792
298.15 K, 101.31 kPa, x1 = 0.4044 | 0.917
298.15 K, 101.31 kPa, x1 = 0.533 | 1.064
298.15 K, 101.31 kPa, x1 = 0.6303 | 1.201
298.15 K, 101.31 kPa, x1 = 0.7167 | 1.379
298.15 K, 101.31 kPa, x1 = 0.817 | 1.586
298.15 K, 101.31 kPa, x1 = 0.8886 | 1.737
299 K, 101 kPa, x1 = 0.0375 | 0.9137
299 K, 101 kPa, x1 = 0.119 | 1.048
299 K, 101 kPa, x1 = 0.2599 | 1.264
299 K, 101 kPa, x1 = 0.3691 | 1.384
299 K, 101 kPa, x1 = 0.4937 | 1.964
299 K, 101 kPa, x1 = 0.7172 | 2.348
303.15 K, 101.3 kPa, x1 = 0.0439 | 0.544
303.15 K, 101.3 kPa, x1 = 0.093 | 0.566
303.15 K, 101.3 kPa, x1 = 0.1279 | 0.583
303.15 K, 101.3 kPa, x1 = 0.2139 | 0.661
303.15 K, 101.3 kPa, x1 = 0.2908 | 0.741
303.15 K, 101.3 kPa, x1 = 0.3809 | 0.82
303.15 K, 101.3 kPa, x1 = 0.4902 | 0.937
303.15 K, 101.3 kPa, x1 = 0.6224 | 1.11
303.15 K, 101.3 kPa, x1 = 0.7858 | 1.368
303.15 K, 101.3 kPa, x1 = 0.8923 | 1.573
303.15 K, 101.3 kPa, x1 = 0.9667 | 1.713
308.15 K, 101.31 kPa, x1 = 0.1531 | 0.581
308.15 K, 101.31 kPa, x1 = 0.1961 | 0.612
308.15 K, 101.31 kPa, x1 = 0.2939 | 0.694
308.15 K, 101.31 kPa, x1 = 0.4044 | 0.798
308.15 K, 101.31 kPa, x1 = 0.533 | 0.92
308.15 K, 101.31 kPa, x1 = 0.6303 | 1.03
308.15 K, 101.31 kPa, x1 = 0.817 | 1.336
308.15 K, 101.31 kPa, x1 = 0.8886 | 1.454
318.15 K, 101.31 kPa, x1 = 0.1531 | 0.514
318.15 K, 101.31 kPa, x1 = 0.1961 | 0.544
318.15 K, 101.31 kPa, x1 = 0.2939 | 0.613
318.15 K, 101.31 kPa, x1 = 0.533 | 0.804
318.15 K, 101.31 kPa, x1 = 0.6303 | 0.894
318.15 K, 101.31 kPa, x1 = 0.817 | 1.141
318.15 K, 101.31 kPa, x1 = 0.8886 | 1.194
